Results as given in publication PMC8037142, “Design, Synthesis, Molecular Modeling and Antitumor Evaluation of Novel Indolyl-Pyrimidine Derivatives with EGFR Inhibitory Activity” (Molecules, 2021).
Where two headings read alike, the source gives them in different places.

How the values were obtained:
[1] = system: HCT-116 colon cancer cell line; test: Resazurin Cell Growth Inhibition Assay, HCT-116; type: cell-based, human
Protocol: (§1) Compounds 1–4 were assessed for their in vitro cytotoxic activity against three human cell lines i.e., breast (MCF-7), liver (HepG2), colon (HCT-116) cancer cell lines as well as in lung fibroblast (WI38) normal cell line using the Resazurin Cell Growth Inhibition Assay. Both erlotinib and 5-Fluorouracil (5-FU) were used as reference drugs. Concentrations of the tested compounds that give about 50% inhibition of cell viability (IC50, mean of triplicate) in µM were obtained. […] However, if replaced by a hydrazone substituent, a more prominent efficacy toward the three cancer cell lines was observed. […] The most promising in vitro antiproliferative activity was obtained when the hydrazone is bearing electron-withdrawal groups i.e., 4-chlorobenzylidene moiety (compound 3f), 3,4-dichloro benzylidene moiety (compound 3g) and 4-fluorobenzylidene moiety (compound 3h) compared to the standard treatment (Table 1, Figure 5). The inhibitory activity of compounds was reduced when the hydrazone group is bearing electron donating groups i.e., 4-methyl group (compound 3b), 2-methoxy group (compound 3c), 4-hydroxy (compound 3d) and 4-dimethylamino group (compound 3e). The trend of antiproliferative activity of compounds […] against all tested cell lines has the following descending order: (3g > 3h >3f >3a >3b > 3c > 3d > 3e). […]. […] This is mainly because this compound has the highest lipophilicity as well as less electron density as it has 2-Cl atoms (more electronegativity) on the indolyl pyrimidine-thiazolidinone.
(§2) In vitro cytotoxicity was measured according to the Resazurin Cell Growth Inhibition Assay Alamar Blue or Resazurin (Promega, Mannheim, Germany) reduction assay was used to assess the cytotoxicity of the studied samples. The assay tests cellular viability and mitochondrial function. Briefly, adherent cells were grown in tissue culture flasks, and then harvested by treating the flasks with 0.025% trypsin and 0.25 mM EDTA for 5 min. Once detached, cells were washed, counted, and an aliquot (5 × 10^3 cells) were placed in each well of a 96-well cell culture plate in a total volume of […]. Cells were allowed to attach overnight and then treated with samples. […]. Each assay was performed as triplicates. […] […]. The viability was compared based on a comparison with untreated cells. IC50 (on cancer cells) were the concentration of sample required to inhibit 50% of the cell proliferation and were calculated from a calibration curve by a linear regression using Microsoft Excel.

[2] = system: HepG2 liver cancer cell line; test: Resazurin Cell Growth Inhibition Assay, HepG2; type: cell-based, human
Protocol: as §1, §2

[3] = system: MCF-7 breast cancer cell line; test: Resazurin Cell Growth Inhibition Assay, MCF-7; type: cell-based; settings: Homo sapiens, MCF7; MCF-7, 48 h, mean ± SD of three experiments; read-out: Cytotoxic Activity IC50
Protocol: as §1, §2

[4] = Resazurin Cell Growth Inhibition Assay, WI38 normal cells; type: cell-based; settings: human, WI38 normal lung fibroblast cells, WI-38 normal cells, mean ± SD of three experiments, read-out: Cytotoxic Activity IC50
Protocol: as §1, §2

EGFR kinase = EGFR kinase (Homo sapiens, UniProt P00533); test: In vitro EGFR inhibitory assay (EnzyChrom Kinase Assay Kit EKIN-400); settings: for inhibition at 10 µM: read-out: % Inhibition of EGFR
EGFR kinase, sequence (P00533 25-1210): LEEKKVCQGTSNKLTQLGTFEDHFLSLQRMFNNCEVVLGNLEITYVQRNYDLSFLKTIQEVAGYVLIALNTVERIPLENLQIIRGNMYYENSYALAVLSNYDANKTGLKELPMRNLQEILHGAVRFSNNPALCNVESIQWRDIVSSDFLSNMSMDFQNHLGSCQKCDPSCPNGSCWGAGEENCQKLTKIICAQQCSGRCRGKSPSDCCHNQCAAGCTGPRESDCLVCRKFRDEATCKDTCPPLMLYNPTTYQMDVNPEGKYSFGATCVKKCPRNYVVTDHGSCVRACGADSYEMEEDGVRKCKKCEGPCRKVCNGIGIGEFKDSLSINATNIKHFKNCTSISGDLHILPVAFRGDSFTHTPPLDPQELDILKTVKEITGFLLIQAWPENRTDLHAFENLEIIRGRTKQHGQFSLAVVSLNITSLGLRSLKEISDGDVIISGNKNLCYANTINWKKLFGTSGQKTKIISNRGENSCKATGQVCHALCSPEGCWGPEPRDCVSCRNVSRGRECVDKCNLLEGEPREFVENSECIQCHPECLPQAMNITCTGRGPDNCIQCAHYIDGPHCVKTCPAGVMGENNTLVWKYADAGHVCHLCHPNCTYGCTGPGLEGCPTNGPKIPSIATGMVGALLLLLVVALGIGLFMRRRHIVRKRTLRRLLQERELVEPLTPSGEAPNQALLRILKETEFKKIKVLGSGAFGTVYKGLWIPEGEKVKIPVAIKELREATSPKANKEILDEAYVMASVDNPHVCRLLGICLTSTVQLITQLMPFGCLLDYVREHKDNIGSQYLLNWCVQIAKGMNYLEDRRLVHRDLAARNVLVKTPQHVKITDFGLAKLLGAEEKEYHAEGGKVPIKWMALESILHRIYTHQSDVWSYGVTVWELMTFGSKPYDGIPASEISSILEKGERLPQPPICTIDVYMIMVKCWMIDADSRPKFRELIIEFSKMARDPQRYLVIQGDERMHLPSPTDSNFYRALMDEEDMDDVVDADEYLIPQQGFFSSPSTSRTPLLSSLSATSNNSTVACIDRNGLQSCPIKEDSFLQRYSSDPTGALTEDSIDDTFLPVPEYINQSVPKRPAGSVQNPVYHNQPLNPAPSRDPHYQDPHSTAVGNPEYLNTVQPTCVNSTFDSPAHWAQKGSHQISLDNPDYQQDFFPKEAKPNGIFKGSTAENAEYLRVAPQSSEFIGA
Protocol: A first-generation EGFR inhibitor, erlotinib, was used as standard treatment. […] IC50 for these compounds was determined. […] In addition, 20 µL reaction mixture containing the EGFR kinase, ATP, and substrate in the provided assay buffer. Set up a blank control that contains ATP and substrate but no enzyme. Incubate at desired temperature for 30 min. Prepare 900 µL 10µM (adenosine diphosphate) ADP premix by mixing 3 µL of 3 mM standard and 897 µL distilled water. Transfer 20 µL standards into separate wells of the plate. Prepare enough working reagent for each well. Add 40 µL working reagent to each assay well. Tap plate to mix. Incubate at room temperature for 10 min. Read fluorescence intensity at λexc = 530nm and λem = 590 nm, and then calculate kinase activity.

[5] = system: Ehrlich ascites carcinoma (EAC); test: In vivo antitumor assay in EAC tumor bearing mice; settings: 0.5 mg/mouse for nine days; for Tumor Volume: ascitic fluid; for MST (mean survival time): mean of two experiments; for Viable Tumor Cell Count: trypan blue
Protocol: The antitumor activity of these compounds was assessed by the change in tumor volume, viable cell count, mean survival time (MST) and % increase in lifespan (% ILS) of the EAC tumor bearing mice and 5-FU (standard treatment). The mean survival time (MST) and % increase in lifespan (% ILS) of EAC tumor bearing mice, as well as the influence of these compounds on viable tumor cells and the tumor volume, are shown in Table 2. The hematological profile of these mice was also assessed in comparison with the standard treatment with 5-FU, and no obvious effect on RBCs or WBCs was observed. […] MST = (day of first death + day of last death)/2 %ILS = [(MST of treated group/MST of control group) − 1] × 100 […]
In vivo antitumor evaluation was carried out as previously reported (see Supplementary Materials).
2. Biological Evaluation Details: a) In vivo antitumor assay: Materials . Adult Swiss male mice (weighing 20 -25 g) were obtained from the Department of Pharmacology, Faculty of Pharmacy, Mansoura University, Egypt.
They were kept in microlon boxes at temperature 25 ± 2 °C with a regular 12 hrs light/dark cycle. In addition, food and water were available. EAC cells (procured from NCI, Cairo, Egypt) were harvested and prepared, then their total number was counted.
Procedure. 7 Groups of mice ( n = 4) were used.
Group 1: Negative control (no EAC cells) - received normal saline.
Group 2: Positive control (EAC cells) - received normal saline.
Group 3: EAC cells - treated with compound 3g (0.5 mg/mouse).
Group 4: EAC cells - treated with compound 4f (0.5 mg/mouse).
Group 5: EAC cells - treated with compound 4g (0.5 mg/mouse).
Group 6: EAC cells - treated with compound 4h (0.5 mg/mouse).
Group 7: EAC cells - treated with 5-fluorouracil (0.5 mg/mouse).
2 x 10^6 EAC cells were injected intraperitoneally in each mouse (groups 2-7). After […]
for nine days, then blood samples were withdrawn for assessment of blood count.
Determination of tumor volume
The ascetic fluid was gathered from the peritoneal cavity and its volume was determined. It was then centrifuged, and the packed tumor cell volume was measured.
Determination of viable tumor cell count
100 μL Sample of EAC cells (from three mice per group) was utilized and diluted twenty times with saline. Cells were stained with trypan blue, viable cells are not stained, while the dead ones are stained. The number of viable cells was calculated.

[6] = Homo sapiens, HCT-116, 48 h, mean ± SD of three experiments, read-out: Cytotoxic Activity IC50
[7] = Homo sapiens, HepG2, 48 h, mean ± SD of three experiments, read-out: Cytotoxic Activity IC50

melting point	Structure (SMILES)	IC50 [1, 6]	IC50 [2, 7]	IC50 [3]	IC50 at 48 h [4]	IC50 (EGFR kinase)	inhibition at 10 µM (EGFR kinase)	Tumor Volume [5]	MST (mean survival time) [5]	Viable Tumor Cell Count [5]	IC50 ([1]; Homo sapiens; HCT-116, 48 h, mean ± SD of three experiments; read-out: Cytotoxic Activity IC50)	IC50 ([2]; Homo sapiens; HepG2, 48 h, mean ± SD of three experiments; read-out: Cytotoxic Activity IC50)
	CC1=C(C(=O)N/N=C/c2ccccc2)C(c2c[nH]c3ccccc23)NC(=S)N1 (stereo not drawn) [Compound 3a]	15.2 ± 2.32 µM	19.2 ± 1.5 µM	17 ± 1.8 µM	38.2 ± 2.1 µM							
240 to 242 °C	CC1=C(C(=O)NN=Cc2ccc(C)cc2)C(c2c[nH]c3ccccc23)NC(=S)N1 (stereo not drawn) [Compound 3b, 4-(1H-indol-3-yl)-6-methyl-2-thioxo-1,2,3,4-tetrahydropyrimidine-5-carboxylic acid (4-methyl-benzylidene)-hydrazide]	15.6 ± 3.15 µM	19.4 ± 2.19 µM	18.5 ± 2.11 µM	39.1 ± 1.3 µM							
220 to 222 °C	COc1ccccc1/C=N/NC(=O)C1=C(C)NC(=S)NC1c1c[nH]c2ccccc12 (stereo not drawn) [Compound 3c, 4-(1H-indol-3-yl)-6-methyl-2-thioxo-1,2,3,4-tetrahydropyrimidine-5-carboxylic acid (2-methoy-benzylidene)-hydrazide]	16.3 ± 4.16 µM	19.9 ± 2.06 µM	18.9 ± 2 µM	37.4 ± 1.49 µM							
	CC1=C(C(=O)N/N=C/c2ccccc2O)C(c2c[nH]c3ccccc23)NC(=S)N1 (stereo not drawn) [Compound 3d]	16.6 ± 1.27 µM	20.2 ± 2.33 µM	19.2 ± 2.35 µM	35.3 ± 2.42 µM							
180 to 182 °C	CC1=C(C(=O)NN=Cc2ccc(N(C)C)cc2)C(c2c[nH]c3ccccc23)NC(=S)N1 (stereo not drawn) [Compound 3e, 4-(1H-indol-3-yl)-6-methyl-2-thioxo-1,2,3,4-tetrahydropyrimidine-5-carboxylic acid (4-dimethylamino-benzylidene)-hydrazide]	16.2 ± 1.15 µM	20.4 ± 2.3 µM	19.8 ± 2.7 µM	40 ± 2.31 µM							
	CC1=C(C(=O)N/N=C/c2ccc(Cl)cc2)C(c2c[nH]c3ccccc23)NC(=S)N1 (stereo not drawn) [Compound 3f]	10.2 ± 1.18 µM	10.6 ± 2.32 µM	10.7 ± 2.3 µM	29.8 ± 1.51 µM							
	CC1=C(C(=O)NN=Cc2ccc(Cl)c(Cl)c2)C(c2c[nH]c3ccccc23)NC(=S)N1 (stereo not drawn) [Compound 3g, 4-(1H-indol-3-yl)-6-methyl-2-thioxo-1,2,3,4-tetrahydropyrimidine-5-carboxylic acid (3,4-dichloro-benzylidene)-hydrazide]	8.5 ± 2.3 µM	10 ± 2.46 µM	9 ± 2.4 µM	30 ± 3.72 µM	0.5 ± 0.04 µM	53%	2.97 mL	30 days	48.00 10^6/mL		
	CC1=C(C(=O)N/N=C/c2ccc(F)cc2)C(c2c[nH]c3ccccc23)NC(=S)N1 (stereo not drawn) [Compound 3h]	10.1 ± 2.45 µM	10.4 ± 2.08 µM	10.2 ± 2.01 µM	28.1 ± 4.22 µM							
270 to 272 °C	CC1=C(C(=O)NN2C(=O)CSC2c2ccccc2)C(c2c[nH]c3ccccc23)NC(=S)N1 (stereo not drawn) [Compound 4a, 4-(1H-indol-3-yl)-6-methyl-N-(4-oxo-2-phenylthiazolidin-3-yl)-2-thioxo-1,2,3,4-tetrahydropyrimidine-5-carboxamide]	12.3 ± 2.17 µM	17 ± 4.3 µM	11.2 ± 4.31 µM	38 ± 5.51 µM							
220 to 222 °C	CC1=C(C(=O)NN2C(=O)CSC2c2ccc(C)cc2)C(c2c[nH]c3ccccc23)NC(=S)N1 (stereo not drawn) [Compound 4b, 4-(1H-indol-3-yl)-6-methyl-N-(4-oxo-2-(p-tolyl)thiazolidin-3-yl)-2-thioxo-1,2,3,4-tetrahydropyrimidine-5-carboxamide]	12.6 ± 1.05 µM	18 ± 3.2 µM	11.6 ± 3.22 µM	39.8 ± 4.51 µM							
200 to 202 °C	COc1ccccc1C1SCC(=O)N1NC(=O)C1=C(C)NC(=S)NC1c1c[nH]c2ccccc12 (stereo not drawn) [Compound 4c, 4-(1H-indol-3-yl)-N-(2-(2-methoxyphenyl)-4-oxothiazolidin-3-yl)-6-methyl-2-thioxo-1,2,3,4-tetrahydropyrimidine-5-carboxamide]	13.2 ± 1.03 µM	18.5 ± 4.38 µM	12.3 ± 4.08 µM	29.5 ± 4.02 µM							
180 to 182 °C	CC1=C(C(=O)NN2C(=O)CSC2c2ccccc2O)C(c2c[nH]c3ccccc23)NC(=S)N1 (stereo not drawn) [Compound 4d, N-(2-(2-hydroxyphenyl)-4-oxothiazolidin-3-yl)-4-(1H-indol-3-yl)-6-methyl-2-thioxo-1,2,3,4-tetrahydropyrimidine-5-carboxamide]	13.6 ± 1.09 µM	18.7 ± 1.2 µM	12.6 ± 1.7 µM	29.9 ± 3.63 µM							
170 to 172 °C	CC1=C(C(=O)NN2C(=O)CSC2c2ccc(N(C)C)cc2)C(c2c[nH]c3ccccc23)NC(=S)N1 (stereo not drawn) [Compound 4e, N-(2-(4-(dimethylamino)phenyl)-4-oxothiazolidin-3-yl)-4-(1H-indol-3-yl)-6-methyl-2-thioxo-1,2,3,4-tetrahydropyrimidine-5-carboxamide]	13.7 ± 0.55 µM	18.6 ± 0.94 µM	14.2 ± 0.74 µM	20.2 ± 5.52 µM							
	CC1=C(C(=O)NN2C(=O)CSC2c2ccc(Cl)cc2)C(c2c[nH]c3ccccc23)NC(=S)N1 (stereo not drawn) [Compound 4f, N-(2-(4-chlorophenyl)-4-oxothiazolidin-3-yl)-4-(1H-indol-3-yl)-6-methyl-2-thioxo-1,2,3,4-tetrahydropyrimidine-5-carboxamide]	8.02 ± 0.26 µM	8.9 ± 1.73 µM	8.01 ± 1.83 µM	19.3 ± 5.87 µM	0.38 ± 0.02 µM	71%	2.50 mL	37 days	40.70 10^6/mL		
	O=c1[nH]cc(F)c(=O)[nH]1 [Compound 5-FU, 5-Fluorouracil, reference compound]			5.38 ± 0.24 µM	5.7 ± 1.5 µM			0.80 mL	53.0 days	19.07 10^6/mL	7.88 ± 0.2 µM	5.34 ± 0.4 µM
	C#Cc1cccc(Nc2ncnc3cc(OCCOC)c(OCCOC)cc23)c1 [erlotinib, reference compound]	7.49 ± 0.65 µM		6.65 ± 0.82 µM	22.5 ± 0.65 µM							
